Test systems include MOLT-4; HOP-62; HCC 2998; SK-OV-3; SW-620; KM12; A549; OVCAR-8; Hs-578T; M14; SK-MEL-2; Malme-3M; HT-29; HCT-15; SF-295; RPMI-8226; SK-MEL-5; IGROV-1; HOP-92; CAKI-1.
Experiment in all cases: NCI-60 cell line screen, 48 h

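A five-concentration, 48-hour dose response in 96-well plates underlies each endpoint, interpolated linearly between surrounding concentrations. Abbreviation: GI50, concentration required for 50% inhibition of growth.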 The source made the active and inactive calls. Cut-off read from the data, not from the text of the source: active = GI50 up to about 1.1 µM and inactive = higher.

`CN[C@@H]1C[C@H]2O[C@@](C)([C@@H]1OC)n1c3ccccc3c3c4c(c5c6ccccc6n2c5c31)C(=O)N[C@@H]4O`: the GI50 in the test on MOLT-4 is 0.0259 µM (active); in the test with HOP-62 it was < 0.0134 µM (active); with HCC 2998, 0.149 µM (active); in the test with SK-OV-3, 0.0267 µM (active); in the test with SW-620, 0.0764 µM (active); in the test on KM12 it was 0.0328 µM (active). Moreover, the GI50 is 0.0278 µM (active) in the test on A549; 0.0668 µM (active) in the test with OVCAR-8; 0.00454 µM (active) in the test on Hs-578T; 0.0255 µM (active) in the test with M14; 0.0145 µM (active) in the test on SK-MEL-2; 0.0175 µM (active) in the test on Malme-3M. The GI50 in the test on HT-29 is 0.125 µM (active); with HCT-15 it was 0.209 µM; in the test with SF-295 it was 0.0241 µM (active); with RPMI-8226, 0.658 µM (active).
Take `CN(C)CCNc1ccccn1`: the GI50 in the test on MOLT-4, in the test with HOP-62, in the test with HCC 2998, with SK-MEL-5, in the test on IGROV-1 and in the test with SW-620 was > 100 µM (inactive) in each case. Besides, the GI50 in the test on HOP-92, in the test on KM12, in the test with A549, in the test on OVCAR-8, with CAKI-1 and in the test with Hs-578T was > 100 µM (inactive) in each case. For the same compound, the GI50 in the test on M14 was > 100 µM (inactive); in the test on SK-MEL-2, > 100 µM (inactive); with Malme-3M, > 100 µM (inactive); in the test on HT-29 it was > 100 µM (inactive); in the test on HCT-15, > 100 µM; with SF-295 it was > 100 µM (inactive).
As to `COc1ccc(/C=C/c2ccnc3ccccc23)c(OC)c1`, the GI50 was 4.54 µM (inactive) in the test on MOLT-4; > 10 µM (inactive) in the test on HOP-62; 6.82 µM (inactive) with HCC 2998; 3.66 µM (inactive) in the test on SK-MEL-5; > 10 µM (inactive) with SK-OV-3; 7.87 µM (inactive) in the test with IGROV-1. Moreover, the GI50 in the test on SW-620 is 5.94 µM (inactive); in the test on KM12 it was 6 µM (inactive); in the test with A549, > 10 µM (inactive); with OVCAR-8, 7.52 µM (inactive); in the test with CAKI-1, > 10 µM (inactive); with Hs-578T, 5.98 µM (inactive). Further, the GI50 in the test on M14 is > 10 µM (inactive); in the test with SK-MEL-2 it was 8.51 µM (inactive); in the test with Malme-3M, 5.69 µM (inactive); with HCT-15 it was 6.49 µM; in the test with SF-295 it was 6.18 µM (inactive); in the test on RPMI-8226 it was 7.33 µM (inactive).
For `N=C(N)N/N=C/c1c(-c2ccc(N)cc2)nc2sccn12`, the GI50 with MOLT-4 is 25.4 µM (inactive); in the test on HOP-62, 26.5 µM (inactive); in the test with SK-MEL-5, > 100 µM (inactive); in the test with SK-OV-3 it was 24.8 µM (inactive); in the test on IGROV-1, 60.8 µM (inactive); with SW-620, 22.8 µM (inactive). For the same compound, the GI50 in the test with HOP-92 is > 100 µM (inactive); with KM12, 21.2 µM (inactive); in the test with A549, 21.2 µM (inactive); in the test with OVCAR-8 it was 34.5 µM (inactive); in the test with CAKI-1 it was 33.7 µM (inactive); with Hs-578T, 31.3 µM (inactive). Further, the GI50 in the test with M14 was 24.2 µM (inactive); in the test with SK-MEL-2, 30.5 µM (inactive); in the test with Malme-3M, 61 µM (inactive); in the test with HT-29, 22.7 µM (inactive); with HCT-15, 36.9 µM; in the test with SF-295 it was 23.4 µM (inactive). Moreover, in the test on RPMI-8226, the GI50 is 30.8 µM (inactive).
In the case of `C=CCSC(C)=O`, the GI50 with MOLT-4 was > 10 µM (inactive); with HOP-62, > 100 µM (inactive); in the test with HCC 2998, > 100 µM (inactive); with SK-MEL-5, > 100 µM (inactive); in the test with SK-OV-3, > 100 µM (inactive); in the test with IGROV-1, > 100 µM (inactive). For the same compound, the GI50 with SW-620, with KM12, in the test on A549, in the test with OVCAR-8, with CAKI-1 and in the test with Hs-578T was > 100 µM (inactive) in each case. Further, the GI50 in the test on M14 is > 100 µM (inactive); in the test on SK-MEL-2, > 100 µM (inactive); with Malme-3M it was > 100 µM (inactive); in the test with HT-29, > 100 µM (inactive); with HCT-15 it was > 100 µM; with SF-295, > 100 µM (inactive). In addition, in the test with RPMI-8226, the GI50 was > 100 µM (inactive).
For the compound `CC(=O)OC/C=C(\C)CCC(Br)C(C)(C)Br` (stereo not drawn), the GI50 in the test on MOLT-4, in the test on HOP-62, in the test with HCC 2998, with SK-MEL-5, with SK-OV-3 and in the test with IGROV-1 was > 10 µM (inactive) in each case. The GI50 in the test on SW-620, with KM12, in the test with A549, in the test with OVCAR-8, in the test on CAKI-1 and in the test on Hs-578T was > 10 µM (inactive) each time. Besides, the GI50 with M14 was > 10 µM (inactive); with SK-MEL-2, > 10 µM (inactive); in the test on Malme-3M, > 10 µM (inactive); in the test on HT-29, > 10 µM (inactive); with HCT-15, > 10 µM; with SF-295 it was > 10 µM (inactive). Besides, in the test on RPMI-8226, the GI50 was > 10 µM (inactive).
As to `CCOC(=O)NC(Nc1ccc(C)cc1)(C(F)(F)F)C(F)(F)F`, the GI50 in the test with MOLT-4, in the test with HOP-62, in the test with HCC 2998, in the test with SK-MEL-5, with SK-OV-3 and in the test with IGROV-1 was > 100 µM (inactive) each time. In addition, the GI50 in the test on SW-620, in the test on HOP-92, with KM12, with A549, in the test on OVCAR-8 and in the test on Hs-578T was > 100 µM (inactive) each time. Besides, the GI50 in the test with M14 was > 100 µM (inactive); in the test on Malme-3M, > 100 µM (inactive); with HT-29, > 100 µM (inactive); in the test on HCT-15, > 100 µM; in the test on SF-295, > 100 µM (inactive); in the test on RPMI-8226, > 100 µM (inactive).
Regarding `CC(C)=NNC1=NC(C)(C)P(=O)(NNc2ncccn2)S1` (stereo not drawn), the GI50 with MOLT-4, with HOP-62, in the test with HCC 2998, with SK-MEL-5, in the test on SK-OV-3 and with IGROV-1 was > 100 µM (inactive) throughout. The GI50 in the test on SW-620, with HOP-92, with A549, in the test with OVCAR-8, with CAKI-1 and with Hs-578T was > 100 µM (inactive) throughout. For the same compound, the GI50 in the test with M14 was > 100 µM (inactive); with SK-MEL-2 it was > 100 µM (inactive); with HT-29, > 100 µM (inactive); in the test with HCT-15, > 100 µM; in the test with SF-295 it was > 100 µM (inactive).
Take `C=C(C)[C@H]1C=C[C@@H](OC(=O)c2cccnc2)[C@@]23CO[C@@](C)([C@H](OC(=O)c4cccnc4)[C@@]4(OC(C)=O)C[C@H](C)[C@H](OCCC)[C@@H]4[C@H]2OC(C)=O)[C@H]13`: the GI50 in the test with MOLT-4 was 7.1 µM (inactive); with HOP-62 it was 10.9 µM (inactive); with HCC 2998, > 15 µM (inactive); in the test with SK-MEL-5, > 15 µM (inactive); in the test with SK-OV-3 it was > 15 µM (inactive); with IGROV-1 it was > 15 µM (inactive). Further, the GI50 in the test with SW-620 was > 15 µM (inactive); with HOP-92 it was > 15 µM (inactive); with KM12 it was > 15 µM (inactive); in the test on OVCAR-8 it was > 15 µM (inactive); with CAKI-1, > 15 µM (inactive); in the test on Hs-578T, 13.5 µM (inactive). For the same compound, the GI50 was 12.7 µM (inactive) in the test with M14; > 15 µM (inactive) in the test on SK-MEL-2; > 15 µM with HCT-15; 13.4 µM (inactive) with SF-295; 9.95 µM (inactive) in the test with RPMI-8226.
In the case of `Nc1ccc2c(c1)S(=O)(=O)c1cc(N)ccc1-2`, the GI50 with MOLT-4, with HOP-62, with HCC 2998, with SK-MEL-5, in the test with SK-OV-3 and with IGROV-1 was > 100 µM (inactive) each time. The GI50 with SW-620, with HOP-92, in the test with KM12, in the test with A549, in the test with OVCAR-8 and with CAKI-1 was > 100 µM (inactive) in each case. In addition, the GI50 in the test with Hs-578T was > 100 µM (inactive); in the test with M14 it was > 100 µM (inactive); with SK-MEL-2, > 100 µM (inactive); in the test with HT-29, > 100 µM (inactive); with HCT-15, > 100 µM; in the test on SF-295, > 100 µM (inactive).
Regarding `CO[C@@H]1C=C[C@@]23c4cc5c(cc4C(O)N(CC2O)C3C1)OCO5` (stereo partly drawn), the GI50 in the test with MOLT-4 was 2.82 µM (inactive); with HOP-62, 4.43 µM (inactive); in the test on SK-MEL-5 it was 2.01 µM (inactive); in the test with SK-OV-3, 3.66 µM (inactive); with IGROV-1, 3.78 µM (inactive); in the test on SW-620, 4.33 µM (inactive). The GI50 in the test with HOP-92 was 3.09 µM (inactive); with KM12, 2.62 µM (inactive); in the test on A549, 3.35 µM (inactive); in the test with OVCAR-8 it was 3.63 µM (inactive); in the test on CAKI-1, 3.58 µM (inactive); in the test on Hs-578T, 22.6 µM (inactive). Also, the GI50 in the test on M14 was 3.14 µM (inactive); with SK-MEL-2 it was 2.99 µM (inactive); with Malme-3M, 6.97 µM (inactive); with HT-29, 3 µM (inactive); in the test with HCT-15, 3.8 µM; with SF-295, 5.41 µM (inactive). Also, the GI50 with RPMI-8226 is 4.18 µM (inactive).

Values taken from ChEMBL document CHEMBL1201862, “PubChem BioAssay data set” (2004).
